Assays:
Xac 306 biofilm cells = assay: Resistance of Xac biofilm cells to copper, cell viability assay in glass tubes; format: cell-based, Xanthomonas citri subsp. citri; conditions: for susceptibility of biofilms to CuSO4 relative to untreated control: 10 mM D-leucine, 100 μg/mL IAN; for cell viability of Xac biofilms exposed to CuSO4: CuSO4 1.0 mM plus biofilm inhibitor; for viable cells in biofilms: CuSO4 (1.0 mM) plus D-leucine 10.0 mM and/or IAN 100 μg/ml, 24 h
Method: The level of copper resistance of biofilms was evaluated using a cell viability assays. Briefly, Xac biofilms were prepared using NB with stationary incubation in glass tubes as described above. After 48 h-incubation, the cultures were removed and bacterial cells attached to the tubes were gently washed three times with SDW. One milliliter of fresh NB with CuSO4 (1.0 mM), D-leucine (10 mM) or IAN (100 μg/mL), or a combination of these compounds was added to each tube. NB alone was used as control. Tubes were kept at room temperature for 24 h and shaken vigorously for 5 min. The suspensions were diluted in 10-fold series, and 10 μL of each dilution spotted in triplicate on NA plate. Plates were incubated at 28° C. for 48 to 72 h prior to assessing bacterial growth. Colonies that grew near the dilution end-point were counted and bacterial populations in the initial suspensions prior to dilution were calculated. Each treatment compromises four replicates and the experiment repeated three times.

[1] = test system: biofilm formation and copper resistance related genes in Xac 306; assay: qRT-PCR differential gene expression; format: cell-based, Xanthomonas citri subsp. citri; conditions: for expression of genes important for biofilm formation (qRT-PCR): IAN 100 μg/mL or D-leucine 10 mM, NB, 48 h, 15 genes, gyrA control; for expression of galU, gumB, gumD, copA and copB in planktonic or biofilm cells: in the presence of CuSO4, data not shown
Method: To investigate the mechanisms of D-leucine and IAN inhibiting Xac 306 biofilm formation, qRT-PCR analysis was used to determine differential gene expression for Xac306 cells with and without IAN (100 μg/mL) or D-leucine (10 mM). For this analysis, Xac306 was cultured in NB medium with or without biofilm inhibitor at 28° C. without shaking. Cells were collected after 48 h of incubation by centrifugation at 12,000×g for 5 min at 4° C. and used for RNA extraction. For the analysis of gene expression in Xac 306 planktonic and biofilm cells with sub-MICs CuSO4 concentrations, we followed the same procedure described for evaluation of resistance of Xac biofilm cells to copper in glass tubes. Both biofilm cells attached to the glass tube at the medium-air interface and planktonic cells in culture were used. Cells collected after 48 h of incubation in the presence of CuSO4 were washed by centrifugation at 12,000×g for 5 min at 4° C. with diethylpyrocarbonate treated water. Cells collected from five tubes were combined and served as one biological replicate. The pellet was stored at −80° C. until RNA extraction. Total RNA of Xac306 cells was isolated using RNA protect bacterial reagent (Qiagen, Valencia, Calif.) and RNeasy Mini Kit (Qiagen, Valencia, Calif.), following the manufacturer's instructions. The contaminated genomic DNA was removed using a TURBO DNA-free kit (Ambion, Austin, Tex.). RNA purity and quality were evaluated with a NanoDrop ND-1000 spectrophotometer (NanoDrop Technologies, Wilmington, Del.).
A one-step QRT-PCR was conducted using a 7500 fast real-time PCR system (Applied Biosystems, Foster City, Calif.) with a QuantiTect SYBR green RT-PCR kit (Qiagen, Valencia, Calif.) following the manufacturer's instructions. The gene specific primers (Table 1) were designed based on the genome sequence of Xac strain 306 (da Silver et al., 2002). In the biofilm inhibition mechanism studies, those primers targeted fifteen genes that were previously identified to be related bioflim formation in Xac strain 306 (Li and Wang, 2011). In the copper resistance analysis, those primers targeted the gum genes gumB and gumD polysaccharides—related gene galU, and copper resistance-related genes copA and copB (Teixeira et al., 2008; Behlau et al., 2012). The DNA gyrase subunit A encoding gene gyrA was used as endogenous control. The relative fold change in gene expression was calculated using the formula 2^−ΔΔCT (Livak and Schmittgen, 2001). qRT-PCR was repeated twice with four independent biological replicates each time.

[2] = test system: X. citri subsp. citri on citrus fruit; assay: Detached immature grapefruit fruit spray inoculation; format: in vivo, Xanthomonas citri subsp. citri; conditions: for decrease in CFU per square centimeter of fruit tissue compared with untreated control / canker symptom development on fruit surface (lesion numbers): D-leucine 10 mM, IAN 100 μg/ml; for canker symptom development on fruit surface (lesion numbers): applied along with pathogen, preliminary study; for log reduction in the number of CFU per square centimeter: fruit, 11 days after inoculation

Compound | susceptibility of biofilms to CuSO4 relative to untreated control (Xac 306 biofilm cells) | cell viability of Xac biofilms exposed to CuSO4 (Xac 306 biofilm cells) | viable cells in biofilms (Xac 306 biofilm cells) | expression of genes important for biofilm formation (qRT-PCR) [1] | expression of galU, gumB, gumD, copA and copB in planktonic or biofilm cells [1] | decrease in CFU per square centimeter of fruit tissue compared with untreated control [2] | canker symptom development on fruit surface (lesion numbers) [2] | log reduction in the number of CFU per square centimeter [2]
CC(C)C[C@@H](N)C(=O)O [D-leucine] | about 10 times | significantly reduced | 1.1×10^6 CFU/mL | no induction or repression of any of the tested genes | did not affect express of any of the gene tested | approximately 50 fold | able to reduce canker symptom development | ~1.6 log
N#CCc1c[nH]c2ccccc12 [IAN, 3-indolylacetonitrile] | about 10 times | significantly reduced | 4.3×10^6 CFU/mL | repression of chemotaxis and motility genes cheY, motB and pilB | did not affect express of any of the gene tested | approximately 50 fold | able to reduce canker symptom development | ~1.8 log

Reference: US10111431B2, “Application of biofilm formation inhibiting compounds enhances control of citrus canker” (priority 2013, dated 2018)
